This note sets out measurements from PubChem BioAssay (NCI).

Some test systems named below: COLO 205 colon; HCC-2998 colon; KM12 colon; OVCAR-4 ovarian; SF-295 CNS; SF-539 CNS; SK-MEL-28 melanoma; SN12C renal; SNB-75 CNS; UACC-257 melanoma.
Holding throughout (test): NCI tumour cell line growth inhibition, 48 h

Molecules are shown by their SMILES.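 48-hour exposure; five concentrations; linearly interpolated endpoints. At the GI50, growth is halved. Definition used: TGI = concentration required for complete inhibition of growth.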

Take `C=C1C(=O)C23C(O)C1CC[C@H]2C12CCCC(C)(COC(C)=O)[C@H]1[C@H](O)[C@]3(O)OC2` (some centres undefined): the TGI with COLO 205 colon is 4.14 µM; in the experiment on HCC-2998 colon, 3.32 µM; in the experiment on KM12 colon it was 6.07 µM; in the experiment on OVCAR-4 ovarian it was 5.49 µM; with SF-295 CNS, 2.41 µM; with SF-539 CNS it was 3.07 µM. The TGI in the experiment with SK-MEL-28 melanoma is 2.97 µM; in the experiment with SN12C renal it was 3.44 µM; in the experiment with SNB-75 CNS it was 4.33 µM; in the experiment on UACC-257 melanoma, 3.67 µM.

For `OCc1ccc(N2CCOCC2)cc1Cl`, the GI50 in the experiment on COLO 205 colon was 25 µM; with HCC-2998 colon it was over 57.1 µM; in the experiment on KM12 colon, over 100 µM; with OVCAR-4 ovarian, 55.6 µM; in the experiment on SF-295 CNS it was 28.2 µM; in the experiment with SF-539 CNS, over 100 µM. The GI50 with SK-MEL-28 melanoma was over 100 µM; with SN12C renal it was over 100 µM; in the experiment with SNB-75 CNS, over 100 µM; in the experiment on UACC-257 melanoma, 7.2 µM. Further, the TGI is over 68.1 µM in the experiment on COLO 205 colon; over 100 µM in the experiment with HCC-2998 colon; over 100 µM in the experiment with KM12 colon; over 100 µM with OVCAR-4 ovarian; over 100 µM in the experiment on SF-295 CNS; over 100 µM in the experiment with SF-539 CNS. Also, the TGI in the experiment with SK-MEL-28 melanoma is over 100 µM; in the experiment on SN12C renal, over 100 µM; in the experiment on SNB-75 CNS, over 100 µM; in the experiment on UACC-257 melanoma, 24.1 µM.

In the case of `C=C1C2Oc3ccccc3C1N(c1ccccc1)O2` (centres undefined), the TGI was over 100 µM in the experiment on COLO 205 colon; over 100 µM in the experiment on HCC-2998 colon; 42.2 µM with KM12 colon; 75.3 µM in the experiment on OVCAR-4 ovarian; 62.7 µM in the experiment with SF-295 CNS; 57.3 µM in the experiment with SF-539 CNS. Further, the TGI in the experiment with SK-MEL-28 melanoma was over 100 µM; in the experiment with SN12C renal, 88.1 µM; with SNB-75 CNS it was over 100 µM; with UACC-257 melanoma, over 100 µM.

`Cc1cccc(C)c1N1C(=O)C(=O)C(c2nc3ccccc3s2)C(=Nc2cccc3c(=O)[nH][nH]c(=O)c23)C1=O` (centres undefined): the TGI in the experiment on COLO 205 colon, with HCC-2998 colon, in the experiment with KM12 colon, in the experiment with OVCAR-4 ovarian, in the experiment with SF-295 CNS and in the experiment on SF-539 CNS was over 100 µM throughout. Besides, the TGI in the experiment on SK-MEL-28 melanoma, in the experiment on SN12C renal, with SNB-75 CNS and with UACC-257 melanoma was over 100 µM each time.

Consider `c1cnn2ncc(-c3ccnc(Nc4ccc5c(c4)OCCO5)n3)c2c1`, for which the GI50 in the experiment on COLO 205 colon was 0.0473 µM; in the experiment on HCC-2998 colon it was 0.0911 µM; in the experiment with KM12 colon it was 0.07 µM; in the experiment with OVCAR-4 ovarian, 0.269 µM; in the experiment on SF-295 CNS, 0.0799 µM; with SF-539 CNS, 0.0679 µM. Besides, the GI50 was 0.0544 µM in the experiment on SK-MEL-28 melanoma, 0.0875 µM in the experiment with SN12C renal, 0.0671 µM in the experiment with SNB-75 CNS and 0.0671 µM in the experiment on UACC-257 melanoma. Further, the TGI with COLO 205 colon was 0.107 µM; in the experiment on HCC-2998 colon, 0.514 µM; with KM12 colon it was 0.303 µM; in the experiment on OVCAR-4 ovarian it was over 25 µM; with SF-295 CNS, 0.987 µM; in the experiment on SF-539 CNS, 0.222 µM. Moreover, the TGI in the experiment on SK-MEL-28 melanoma is 0.199 µM; with SN12C renal, over 25 µM; with SNB-75 CNS, 0.173 µM; in the experiment on UACC-257 melanoma, 0.198 µM.

Regarding `CC(=O)[CH-]C(=O)c1ccccc1.CC(=O)[CH-]C(=O)c1ccccc1.CC1(C)OCC(C2OC3OC(C)(C)OC3C2[O-])O1.CC[O-].[Ti+4]` (centres undefined), the GI50 with COLO 205 colon was 17 µM; with HCC-2998 colon, 15.4 µM; in the experiment with KM12 colon, 11.4 µM; in the experiment on OVCAR-4 ovarian, 14.2 µM; in the experiment on SF-295 CNS, 17.1 µM; with SF-539 CNS, 13.3 µM. For the same molecule, the GI50 with SK-MEL-28 melanoma was 11.6 µM; in the experiment with SN12C renal it was 15.6 µM; with SNB-75 CNS it was 6.6 µM; in the experiment with UACC-257 melanoma it was 19.4 µM. The TGI with COLO 205 colon stood at 32.5 µM; in the experiment with HCC-2998 colon, 29.9 µM; in the experiment on KM12 colon, 26.8 µM; in the experiment on OVCAR-4 ovarian it was 32.2 µM; in the experiment on SF-295 CNS it was 31.6 µM; with SF-539 CNS, 27.4 µM. Also, the TGI with SK-MEL-28 melanoma is 25.1 µM; in the experiment with SN12C renal it was 33.1 µM; in the experiment with UACC-257 melanoma it was 54.8 µM.

Consider `Nc1ccccc1C(=O)C(Br)C(Br)c1ccc2c(c1)OCO2` (centres undefined), for which the TGI in the experiment with COLO 205 colon was 27.4 µM; in the experiment on HCC-2998 colon it was 42.5 µM; in the experiment on KM12 colon, 33.8 µM; with OVCAR-4 ovarian it was 59.8 µM; in the experiment on SF-295 CNS, over 100 µM; in the experiment on SF-539 CNS it was 33.8 µM. For the same molecule, the TGI with SK-MEL-28 melanoma stood at 70.4 µM; in the experiment on SN12C renal, 72.5 µM; with SNB-75 CNS, 60.9 µM; in the experiment with UACC-257 melanoma, 44.9 µM.

As to `CC1OC(c2ccc3c(c2O)C(=O)C2=C(C3=O)C3(O)C(=O)CC(C)(O)CC3(O)C=C2)CC(O)C1O` (centres undefined), the TGI was 3.39 µM with COLO 205 colon; 31.7 µM in the experiment on HCC-2998 colon; over 60.6 µM in the experiment with KM12 colon; 27.2 µM in the experiment with OVCAR-4 ovarian; 34.2 µM in the experiment with SF-295 CNS; 35.6 µM in the experiment with SF-539 CNS. Also, the TGI was found to be 29.4 µM with SK-MEL-28 melanoma, 28.2 µM with SN12C renal, 48.7 µM in the experiment with SNB-75 CNS and 29.3 µM with UACC-257 melanoma.

As to `COc1ccc(C2=C(N3CCc4ccccc43)C(=O)NC2=O)cc1`, the GI50 in the experiment on COLO 205 colon, in the experiment on HCC-2998 colon, in the experiment on KM12 colon, in the experiment on OVCAR-4 ovarian, in the experiment with SF-295 CNS and with SF-539 CNS was over 25 µM throughout. In addition, the GI50 in the experiment on SK-MEL-28 melanoma is over 25 µM; in the experiment with SN12C renal, over 25 µM; in the experiment with SNB-75 CNS it was over 24.1 µM; in the experiment with UACC-257 melanoma it was over 25 µM. The TGI with COLO 205 colon, in the experiment on HCC-2998 colon, in the experiment with KM12 colon, with OVCAR-4 ovarian, with SF-295 CNS and with SF-539 CNS was over 25 µM each time. Moreover, the TGI with SK-MEL-28 melanoma, in the experiment on SN12C renal, in the experiment on SNB-75 CNS and in the experiment with UACC-257 melanoma was over 25 µM each time.
